Data from article PMC10313808, “Lipoxygenase inhibitory synthetic derivatives of methyl gallate regulate gene expressions of COX-2 and cytokines to reduce animal model arthritis” (Scientific Reports, 2023).
Each block holds one molecule with its values, some of them ahead of it.

Assays:
FCA-induced arthritis [1] = test: FCA-induced arthritis: haematological parameters; format: in vivo, Sprague–Dawley (SD) rats; conditions: FCA rats, 10 mg.kg^−1 oral
Protocol: (§1) Chronic inflammation induced by Freund's Complete Adjuvant contains a suspension of heat-killed Mycobacterium tuberculosis in the vehicle (Chondrex, Labex Corporation). 100 μL of FCA (10 mg/mL) was injected intradermally to the left-hand paw of SD rats[42]. […] Induction of inflammation became chronic by 9–12 days and then rats were divided into 7 groups having 6 rats in each group. Everything possible was done to minimize the suffering of experimental animals. Minimum number of rats only were drafted to generate reliable data. 42 rats were randomly allocated into seven groups (6 × 7).
(§2) Group I (n = 6) served as normal rats that received an equal volume of vehicle control. Group II (n = 6) was arthritic model control treated with vehicle only. Group III (n = 6) was arthritic control which received the diclofenac (10 mg.kg^–1). Groups IV (n = 6), V (n = 6), VI (n = 6) and VII (n = 6) were treated with a low and high dose of methyl gallate (20 mg.kg^–1, 40 mg.kg^–1) and MGSD 1 (1 mg.kg^–1, 10 mg.kg^–1). The drugs were orally administered through oral gavage daily in PBS vehicle for 28 days.
(§3) Blood was drawn from jugular vein[43] and collected in heparinized tubes and used for further analysis. By using Horiba 5-part hematology analyzer the blood parameters like RBC, WBC, neutrophil and hemoglobin were analyzed. Serum parameters were analyzed using Stat Fax autoanalyzer. Serum glutamic pyruvic transaminase (SGPT), serum glutamic oxaloacetic transaminase (SGOT) and alkaline phosphatase (ALP) were determined using standard diagnostic kits (Proton, Accurex).

FCA-induced arthritis [2] = test: FCA-induced arthritis: hind paw volume; format: in vivo, Sprague–Dawley (SD) rats; conditions: FCA rats, 10 mg.kg^−1 oral
Protocol: as §1, §2
By a plethysmometer the rat hind paw volume was measured from the initial day to final day (28th day) with successive intervals of 9 days, before and after FCA injection. The inhibition was calculated by the formula given below. Percentageinhibition=1-Meanchangesinpawvolumeoftreatedrat/Meanchangesinpawvolumeofuntreatedrat×100.

[3] = test system: ankle joints, liver, spleen, and thymus; test: FCA-induced arthritis: histological analysis; format: in vivo, Sprague–Dawley (SD) rats; conditions: FCA rats
Protocol: The animals used for the FCA induced arthritis were euthanized at the end of the experiment and the ankle joints were separated from the hind paw and fixed in 10% buffered formalin. Similarly, liver, spleen, and thymus were also dissected carefully and immersed in fixative, and after 24 h each specimen were decalcified in 5% nitric acid, followed by embedding in paraffin wax and 4 µm thickness sections were prepared. These prepared sections were then mounted and stained with hematoxylin and[…] under brightfield compound binocular research microscope at 100X and 400X magnification and inflammation was graded.

FCA-induced arthritis [4] = conditions: FCA rats, serum, 10 mg.kg^−1 oral
Protocol: as §1, §2, §3

FCA-induced arthritis [5] = test: FCA-induced arthritis: organ index (liver, spleen); format: in vivo, Sprague–Dawley (SD) rats; conditions: FCA rats, 10 mg.kg^−1 oral, end of experiment
Protocol: as §1, §2
At the end of the experiments, animals were euthanized using ketamine injection. The liver and spleen were removed at the end of the experiment and weighed. The index of the organs was expressed as the percentage (%) wet weight of organ versus body weight. The organ indexes were calculated by using the following formula Organindex=Weightoforgang/Bodyweightg×100.

[6] = FCA-induced arthritis: body weight measurement; format: in vivo, Sprague–Dawley (SD) rats; conditions: FCA rats, 10 mg.kg^−1 oral
Protocol: as §1, §2
The bodyweight of the animals was measured every day after the commencement of the experiment till the end (28th day). The weight change was calculated using the formula: Weightchange%=Wt-Wo/[…], where Wt is the weight of the animal at time t
Wo is the weight of the animal on the initial day.

LOX = biological target: T1, LOX (Glycine max, UniProt P08170); test: Fluorescence quenching studies; format: binding; conditions: 296 K, pH 9; for Kd: read-out: Binding constant (K) (converted); for Quenching constant (Ksv): Stern–Volmer
T1 construct: purchased Sigma (Sigma-Aldrich, UK)
T1 sequence (P08170 1-839): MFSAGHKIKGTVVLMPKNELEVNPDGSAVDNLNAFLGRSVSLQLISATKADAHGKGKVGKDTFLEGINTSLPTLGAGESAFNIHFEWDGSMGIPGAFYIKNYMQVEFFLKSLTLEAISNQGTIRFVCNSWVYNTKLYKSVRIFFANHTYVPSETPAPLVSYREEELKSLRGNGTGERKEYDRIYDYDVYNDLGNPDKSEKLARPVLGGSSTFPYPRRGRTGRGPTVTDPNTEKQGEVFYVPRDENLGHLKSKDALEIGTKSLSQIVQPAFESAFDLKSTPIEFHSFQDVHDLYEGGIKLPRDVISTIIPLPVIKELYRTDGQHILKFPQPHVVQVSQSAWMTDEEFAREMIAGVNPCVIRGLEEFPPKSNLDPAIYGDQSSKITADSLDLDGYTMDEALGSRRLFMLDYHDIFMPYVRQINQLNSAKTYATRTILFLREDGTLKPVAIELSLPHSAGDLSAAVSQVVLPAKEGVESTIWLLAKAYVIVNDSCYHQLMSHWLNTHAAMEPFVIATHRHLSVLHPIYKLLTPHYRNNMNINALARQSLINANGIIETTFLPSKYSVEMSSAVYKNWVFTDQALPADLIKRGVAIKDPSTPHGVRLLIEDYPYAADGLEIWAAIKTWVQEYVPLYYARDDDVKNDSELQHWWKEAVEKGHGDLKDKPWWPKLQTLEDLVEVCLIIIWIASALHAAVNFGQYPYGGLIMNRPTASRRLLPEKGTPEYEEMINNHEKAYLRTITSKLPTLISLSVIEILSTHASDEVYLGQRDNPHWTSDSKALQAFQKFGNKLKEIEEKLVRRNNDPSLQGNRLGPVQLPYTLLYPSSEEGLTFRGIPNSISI
Text: To analyze the type of mechanism, the data of fluorescence of LOX was plotted, as relative fluorescence intensity (F0/F), against MGSDs. Here F and F0 are the fluorescence intensity in the presence and absence of MGSDs respectively. The Stern–Volmer constants were obtained from the plot by linear regression using the expression: F0/F=1+KsvQ.
Ksv is the Stern–Volmer constant and [Q] is the respective concentration of derivatives. Ksv which depicts the binding affinity between the fluorophore (protein) and quencher (ligand), were obtained from the slopes of the plot (Supplementary Fig. 15). […] The Fluorescence quenching data provided information about the binding constant (K), the number of binding sites (n), and the values could be arrived by applying the equation. Log F0-F/F=log K+nlogQ.
The Fluoromax-4 spectrophotometer (Spectra-NanoLED source 278) was used for studying fluorescence quenching of the compound. Bandwidth set at 5 nm for both excitation and emission spectra. The wavelength was set for excitation at 280 nm and the emission was recorded at 290–450 nm using 1.0 cm cell at 296 K temperature. The LOX with a concentration of 7 μM, dissolved in borate buffer at pH 9 and ligands at the concentrations of 35, 70, 105, 140, 175, 210, 245 and 280 μM were used for the experiment.

[7] = biological target: T2, Lipoxidase from Glycine max (15- LOX) (Glycine max, UniProt P08170); test: Michaelis–Menten enzyme kinetics (Lineweaver-Burk); format: biochemical; conditions: for IC50: Cheng–Prusoff from Ki; for Ki: linoleic acid substrate, competitive
T2 construct: purchased Sigma (Sigma-Aldrich, UK)
T2 sequence (P08170 1-839): T1 sequence (P08170 1-839)
Protocol: To identify the mode of inhibition, enzyme kinetics assay was performed with MGSDs. For the kinetic analysis different substrate concentrations of 18, 27, 36, 45, 54, 63 µM were prepared in 0.2 mM borate buffer (H 9)[16]. The assay mixture was made of 50 µL of LOX, 50 µL of the test solution and different concentrations of the substrate. The final volume was made upto 2 mL with corresponding borate buffer quantity. The activity of LOX was measured by the formation of […], which was monitored at 234 nm on spectrophotometer, (HITACHI U 2900, Japan). The reaction was measured at a time span of 300 s. The same experiment was repeated in the presence of 0.1, 0.08 and 0.06 μM concentration of MGSDs. The Line Weaver-Burk plot was constructed and Michaelis–Menten constant (Km) and Maximal Velocity (Vmax) were determined from the plot. From the Km and Vmax obtained, the inhibitor constant, Ki was calculated using the following equation derived from the Michaelis–Menten Equation: Km′=Km1+I0/Ki. The IC50was calculated using the Cheng–Prusoff equation, Ki=IC50/1+S/Km.

[8] = biological target: T2, Lipoxidase from Glycine max (15- LOX); test: In-vitro LOX enzyme inhibition assay (spectrophotometric, 234 nm); format: biochemical; conditions: 20 μM compound
Protocol: The LOX inhibition assays were performed with MGSDs. The inhibitory activity was measured by a modified spectrophotometric method[16],[39]. The plant LOX pathway is in many respects equivalent to the ‘arachidonic acid cascades’ in animals. For this reason, the in vitro inhibition of LOX constitutes a good model for the screening of compounds with anti-inflammatory potential[40],[41]. LOX (Lipoxidase from Glycine max (15- LOX); EC 1.13.11.12) type I-B (Soybean), and linoleic acid were purchased from Sigma (Sigma-Aldrich, UK) and used without further purification. Enzyme solution of 1.03 µM was prepared in 0.2 mM borate buffer, pH 8.5. The substrate, linoleic acid solution of 0.3 mM was also prepared in the borate buffer at the same pH. […] The final concentration of MGSDs used for the analysis was 20 µM. The assay mixture was made of 50 µL of LOX, 50 µL of the test solution and 360 µL of the substrate. The final volume was made up to 2 mL with corresponding borate buffer quantity. The activity of LOX was measured on the formation of […], which was monitored at 234 nm on spectrophotometer, (HITACHI U 2900, Japan). The same procedure was repeated with triplicate for the confirmation of LOX inhibitory activity[16],[39].

Compound: O=C(O)Cc1ccccc1Nc1c(Cl)cccc1Cl [Diclofenac]
Hb (FCA-induced arthritis [1]): 14.3 ± 0.4 g/dL
Lymphocyte (FCA-induced arthritis [1]): 73.2 ± 1.64%
Neutro phil (FCA-induced arthritis [1]): 11.5 ± 0.15%
RBC (FCA-induced arthritis [1]): 7.92 ± 0.18^# 10^6/mm^3
WBC (FCA-induced arthritis [1]): 9.25 ± 0.10^# 10^3/mm^3
Percentage of inhibition (paw oedema) (FCA-induced arthritis [2]): 59%
Paw volume (mL) (mean ± SEM) 9th day (FCA-induced arthritis [2]; 9th day): 1.44 ± 0.16 mL
Paw volume (mL) (mean ± SEM) 18th day (FCA-induced arthritis [2]; 18th day): 0.8 ± 0.22 mL
Paw volume (mL) (mean ± SEM) 28th day (FCA-induced arthritis [2]; 28th day): 0.73 ± 0.08 mL
Paw volume (mL) (mean ± SEM) Initial day (FCA-induced arthritis [2]; initial day): 0.56 ± 0.05 mL
Percentage of inhibition (paw oedema) (FCA-induced arthritis [2]; listed as diclofenac): 59%
Histology of ankle joints ([3]; 10 mg.kg^-1): synovial joint was seen free of infiltration and oedema
Histology of liver ([3]; dose not stated): hepatocyte arrays and central sinusoid area were seen to regain normalcy and a few necrotic cells were still visible
Histology of spleen ([3]; dose not stated): periarteriolar lymphoid sheath regained normalcy
Histology of thymus ([3]; methyl gallate high dose): reduction in the number of neutrophils
SGOT (FCA-induced arthritis [4]): 210 ± 1.73 IU/L
SGPT (FCA-induced arthritis [4]): 91 ± 1.20 IU/L
Organ index (%) Liver (FCA-induced arthritis [5]): 3.18 ± 0.11%
Organ index (%) Spleen (FCA-induced arthritis [5]): 0.21 ± 0.01%
Percentage of body weight (Mean ± SEM) 9th day ([6]; 9th day): 9.9 ± 0.07%
Percentage of body weight (Mean ± SEM) 18th day ([6]; 18th day): 36.55 ± 1.10%
Percentage of body weight (Mean ± SEM) 28th day ([6]; 28th day): 41.52 ± 1.36%

Kd (LOX): 439000 nM
Quenching constant (Ksv) (LOX): 6300 M⁻¹
IC50 [7]: 340 nM
Ki [7]: 100 nM
inhibition at 20 µM [8]: 68 ± 4.32%
Compound: O=C(O)COc1cc(C(=O)O)cc(O)c1OCC(=O)O [MGSD 2, 2,2′-((5-carboxy-3-hydroxy-1,2-phenylene)bis (oxy))diacetic acid]

Kd (LOX): 485000 nM
Quenching constant (Ksv) (LOX): 7800 M⁻¹
IC50 ([7]; abstract): 226 nM
Ki [7]: 60 nM
inhibition at 20 µM [8]: 65 ± 2.65%
Compound: O=C(O)COc1cc(C(=O)O)cc(O)c1O [MGSD 3, (3-(carboxymethoxy)-4,5-dihydroxybenzoic acid]
